Peptide text beside a SMILES is read from it. * marks the point of attachment. pNA = O=[N+]([O-])c1ccc(N*)cc1
Assays:
[1] = system: thrombin generation in tissue factor triggered plasma; assay: Manual determination of thrombin generation in plasma (subsampling method) and calculated prothrombinase activity; format: biochemical, human; conditions: for influence on the prothrombinase complex / coagulation cascade: calculated from decay constants and manual thrombin generation curves
Method: Manual determination of thrombin generation in plasma: Extrinsic pathway: To 480 μL defibrinated plasma were added: 172 μL buffer A which contains the substrate at concentrations between 0 to 2000 μM and 20 μL of a 54 μM phospholipid solution (final concentration: 1.5 μM). After incubation of 4 min at 37° C., 24 μL tissue factor (undiluted) was added. Thrombin formation started at zero time by adding 24 μL of a 0.5 M CaCl2 solution (final concentration: 16.67 mM). At regular time intervals of 12 s samples of 10 μL were subsampled as described above. From the amidolytic activities thus obtained, the thrombin generation curve can be drawn. […] Intrinsic pathway: To 480 μL defibrinated plasma were added: 168 μL buffer A which contains the substrate at concentrations between 0 to 1000 μM and 48 μL Actin FS (undiluted). This mixture was intensively mixed and incubated for 4 min at 37° C. Thrombin generation was started at zero time by adding 24 μL of a 0.5 M CaCl2 solution (final concentration: 16.67 mM).
Influence of the substrate on the prothrombinase-complex: With the obtained decay constants and from the curves obtained by the subsampling method we calculated the course of prothrombin conversion and the course of prothrombinase concentration.
Manual determination of thrombin generation in plasma: Extrinsic pathway: To 480 μL defibrinated plasma were added: 172 μL buffer A which contained the substrate at concentrations between 0 to 2000 μM and 20 μL of a 54 μM phospholipid solution (final concentration: 1.5 μM). After incubation for 4 min at 37° C., 24 μL tissue factor (undiluted) was added. Thrombin formation started at zero time by adding 24 μL of a 0.5 M CaCl2 solution (final concentration: 16.67 mM). At regular time intervals of 12 s samples of 10 μL were subsampled as described above. From the amidolytic activities thus obtained, the thrombin generation curve can be drawn.
Influence of the substrate on the prothrombinase-compzex: With the obtained decay constants and from the curves obtained by the subsampling method we calculated the course of prothrombin conversion and the course of prothrombinase concentration.

factor Xa = biological target: T1, factor Xa (Homo sapiens, UniProt P00742); assay: Kinetic parameters of hydrolysis of the substrates by factor Xa in buffer A at 37° C. (Example 4, Table 3); format: biochemical; conditions: buffer A, 37° C., 50 nM factor Xa
T1 construct: human factor Xa samples; gift of Dr. T. Lindhout (University of Limburg, Maastricht)
T1 sequence (P00742 41-179 limits assumed): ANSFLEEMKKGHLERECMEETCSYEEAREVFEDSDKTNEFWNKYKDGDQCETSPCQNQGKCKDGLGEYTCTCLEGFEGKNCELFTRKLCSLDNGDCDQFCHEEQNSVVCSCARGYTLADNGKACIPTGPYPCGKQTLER
T1 sequence (P00742 235-488 limits assumed): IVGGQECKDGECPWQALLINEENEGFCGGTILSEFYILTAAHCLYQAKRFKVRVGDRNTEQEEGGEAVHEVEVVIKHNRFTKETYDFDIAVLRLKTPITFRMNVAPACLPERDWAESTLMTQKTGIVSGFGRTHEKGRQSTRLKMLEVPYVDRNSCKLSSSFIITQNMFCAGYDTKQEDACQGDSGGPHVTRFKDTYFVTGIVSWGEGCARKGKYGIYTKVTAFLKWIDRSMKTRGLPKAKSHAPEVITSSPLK
Method: (§1) Kinetic parameters: The hydrolysis experiments were run in buffer A at 37° C. The liberation of p-nitroaniline was monitored at 405 nm in a dual wavelength (405-546 nm) spectrophotometer made in our workshop, using a personal computer for data recording. In a polystyrene microcuvette (total volume 500 μL), buffer A and substrate solution were added to obtain a final substrate concentration between 200 to 2000 μM. After 5 min of incubation at 37° C., enzyme solution was added to achieve a final concentration between 0.5 to 50 nM. The measurement was carried out at 37° C. in a thermostated cuvette-holder. The Michaelis constant (Km) and the catalytic constant (kcat) were obtained by measuring the initial reaction velocities at different substrate concentrations. The data obtained were fitted by linear regression on the Michaelis-Menten equation.
(§2) Kinetic parameters: The Km and kcat values for each substrate were determined at an enzyme concentration of 0.5-50 nM (thrombin) and 50 nM factor Xa. From the initial reaction velocities, measured for at least six substrate concentrations between 200 and 2000 μM, the Km and kcat values were calculated by linear regression on the Michaelis-Menten curve. Table 3 gives an overview of the kinetic parameters of the different substrates hydrolyzed by thrombin and by factor Xa in buffer A.

euglobulin thrombin = biological target: T2, euglobulin thrombin (Homo sapiens, UniProt P00734); assay: Decay constants of thrombin in plasma; format: biochemical
T2 construct: The euglobulin thrombin fraction was prepared from defibrinated human plasma; from tissue; host or cells: defibrinated human plasma (euglobulin fraction, acid precipitation, method of Josso and Prou-Wartelle)
Method: (§3) To this mixture was added 10 μL of a thrombin preparation to achieve a final concentration of 100 nM. At regular time intervals (5-10 s) 10 μL samples were subsampled into 490 μL buffer B which contained 200 μM of S2238 to determine thrombin activity. After 2 min the reaction was stopped by adding 300 μL 1M citric acid. The moment of sampling and stopping were recorded on a personal computer with pushbutton-equipped pipettes. The optical density was then read at 405 nm and the obtained amidolytic activities were used to calculate the decay constants. The obtained decay constant is the sum of the decay constants of the reaction of thrombin with antithrombin III (k1) and α2 -macroglobulin (k2).
as §3, with “Decay constants of thrombin in plasma: To 120 μL defibrinated plasma was added: 50 μL of buffer A which contained the substances to be tested. To” for “To”, “was” for “was then”

thrombin = thrombin (Homo sapiens, UniProt P00734); assay: Kinetic parameters of hydrolysis of the substrates by thrombin in buffer A at 37° C. (Example 4, Table 3); format: biochemical; design: Pure human α-thrombin; gift of Dr. T. Lindhout (University of Limburg, Maastricht); conditions: buffer A, 37° C.
Method: as §1, §2

CC(C)[C@H](NC(=O)OCCS(C)(=O)=O)C(=O)N[C@@H](CCCNC(=N)N)C(=O)Nc1ccc([N+](=O)[O-])cc1.Cl [Msc-Val-Arg-pNA.HCl]
AA: amidolytic activity (maximum) ([1]; [S] 200 μM): 388.15 mOD/min | PT: prothrombinase concentration (maximum) ([1]; [S] 200 μM): 1119 mOD/min | T: thrombin concentration (maximum) ([1]; [S] 200 μM): 371.24 mOD/min | t: time point at which maximum of amidolytic activity is achieved ([1]; [S] 200 μM): 60 s | t: time point at which maximum of prothrombinase concentration is achieved ([1]; [S] 200 μM): 24 s | t: time point at which maximum of thrombin concentration is achieved ([1]; [S] 200 μM): 60 s | k2,M : k2 determined by the subsampling method ([1]; [S] 200 μM in plasma): 0.198 min⁻¹ | AA: amidolytic activity (maximum) ([1]; [S] 500 μM): 387.15 mOD/min | PT: prothrombinase concentration (maximum) ([1]; [S] 500 μM): 1090 mOD/min | T: thrombin concentration (maximum) ([1]; [S] 500 μM): 374.80 mOD/min | t: time point at which maximum of amidolytic activity is achieved ([1]; [S] 500 μM): 60 s | t: time point at which maximum of prothrombinase concentration is achieved ([1]; [S] 500 μM): 24 s | t: time point at which maximum of thrombin concentration is achieved ([1]; [S] 500 μM): 60 s | k2,M : k2 determined by the subsampling method ([1]; [S] 500 μM in plasma): 0.178 min⁻¹ | AA: amidolytic activity (maximum) ([1]; [S] 1000 μM): 456.42 mOD/min | PT: prothrombinase concentration (maximum) ([1]; [S] 1000 μM): 1346 mOD/min | T: thrombin concentration (maximum) ([1]; [S] 1000 μM): 443.82 mOD/min | t: time point at which maximum of amidolytic activity is achieved ([1]; [S] 1000 μM): 60 s | t: time point at which maximum of prothrombinase concentration is achieved ([1]; [S] 1000 μM): 24 s | t: time point at which maximum of thrombin concentration is achieved ([1]; [S] 1000 μM): 60 s | k2,M : k2 determined by the subsampling method ([1]; [S] 1000 μM in plasma): 0.144 min⁻¹ | influence on the prothrombinase complex / coagulation cascade [1]: no inhibition of the prothrombinase activity | Factor Xa kcat (factor Xa): 4.69 s⁻¹ | Factor Xa kcat /Km (factor Xa): 491 M/s | Km (factor Xa): 9.55 mM | (k1,corr) = k1,corr divided by μM AT-III (euglobulin thrombin; [S] 200 μM in plasma): 1.098 min⁻¹ µM⁻¹ | k1,corr : k1 after correcting for k2,M and 0.170 (euglobulin thrombin; [S] 200 μM in plasma): 1.590 min⁻¹ | k1 : AT-III dependent decay of thrombin (euglobulin thrombin; [S] 200 μM in plasma): 1.729 min⁻¹ | k2 : α2 M dependent decay of thrombin (euglobulin thrombin; [S] 200 μM in plasma): 0.229 min⁻¹ | koverall (euglobulin thrombin; [S] 200 μM in plasma): 1.958 min⁻¹ | t1/2 (euglobulin thrombin; [S] 200 μM in plasma): 21.24 s | (k1,corr) = k1,corr divided by μM AT-III (euglobulin thrombin; [S] 500 μM in plasma): 0.998 min⁻¹ µM⁻¹ | k1,corr : k1 after correcting for k2,M and 0.170 (euglobulin thrombin; [S] 500 μM in plasma): 1.444 min⁻¹ | k1 : AT-III dependent decay of thrombin (euglobulin thrombin; [S] 500 μM in plasma): 1.614 min⁻¹ | k2 : α2 M dependent decay of thrombin (euglobulin thrombin; [S] 500 μM in plasma): 0.178 min⁻¹ | koverall (euglobulin thrombin; [S] 500 μM in plasma): 1.792 min⁻¹ | t1/2 (euglobulin thrombin; [S] 500 μM in plasma): 23.22 s | (k1,corr) = k1,corr divided by μM AT-III (euglobulin thrombin; [S] 1000 μM in plasma): 0.546 min⁻¹ µM⁻¹ | k1,corr : k1 after correcting for k2,M and 0.170 (euglobulin thrombin; [S] 1000 μM in plasma): 0.790 min⁻¹ | k1 : AT-III dependent decay of thrombin (euglobulin thrombin; [S] 1000 μM in plasma): 0.980 min⁻¹ | k2 : α2 M dependent decay of thrombin (euglobulin thrombin; [S] 1000 μM in plasma): 0.124 min⁻¹ | koverall (euglobulin thrombin; [S] 1000 μM in plasma): 1.104 min⁻¹ | t1/2 (euglobulin thrombin; [S] 1000 μM in plasma): 37.70 s | Km (thrombin): 882 µM | Thrombin kcat (thrombin): 0.79 s⁻¹ | Thrombin kcat /Km (thrombin): 894 M/s

CC(C)[C@H](NC(=O)CNC(=O)CNC(=O)[C@@H](N)CCC(=O)O)C(=O)N[C@@H](CCCNC(=N)N)C(=O)Nc1ccc([N+](=O)[O-])cc1 [2HCl.H-Glu-Gly-Gly-Val-Arg-pNA] (H-EGGVR-pNA)
AA: amidolytic activity (maximum) ([1]; [S] 200 μM): 350.62 mOD/min | PT: prothrombinase concentration (maximum) ([1]; [S] 200 μM): 1086 mOD/min | T: thrombin concentration (maximum) ([1]; [S] 200 μM): 335.47 mOD/min | t: time point at which maximum of amidolytic activity is achieved ([1]; [S] 200 μM): 60 s | t: time point at which maximum of prothrombinase concentration is achieved ([1]; [S] 200 μM): 24 s | t: time point at which maximum of thrombin concentration is achieved ([1]; [S] 200 μM): 60 s | k2,M : k2 determined by the subsampling method ([1]; [S] 200 μM in plasma): 0.220 min⁻¹ | AA: amidolytic activity (maximum) ([1]; [S] 500 μM): 376.42 mOD/min | PT: prothrombinase concentration (maximum) ([1]; [S] 500 μM): 1122 mOD/min | T: thrombin concentration (maximum) ([1]; [S] 500 μM): 359.48 mOD/min | t: time point at which maximum of amidolytic activity is achieved ([1]; [S] 500 μM): 60 s | t: time point at which maximum of prothrombinase concentration is achieved ([1]; [S] 500 μM): 24 s | t: time point at which maximum of thrombin concentration is achieved ([1]; [S] 500 μM): 60 s | k2,M : k2 determined by the subsampling method ([1]; [S] 500 μM in plasma): 0.192 min⁻¹ | AA: amidolytic activity (maximum) ([1]; [S] 1000 μM): 409.85 mOD/min | PT: prothrombinase concentration (maximum) ([1]; [S] 1000 μM): 1149 mOD/min | T: thrombin concentration (maximum) ([1]; [S] 1000 μM): 396.23 mOD/min | t: time point at which maximum of amidolytic activity is achieved ([1]; [S] 1000 μM): 60 s | t: time point at which maximum of prothrombinase concentration is achieved ([1]; [S] 1000 μM): 24 s | t: time point at which maximum of thrombin concentration is achieved ([1]; [S] 1000 μM): 60 s | k2,M : k2 determined by the subsampling method ([1]; [S] 1000 μM in plasma): 0.169 min⁻¹ | influence on the prothrombinase complex / coagulation cascade [1]: no inhibition of the prothrombinase activity | Factor Xa kcat (factor Xa): 0.42 s⁻¹ | Factor Xa kcat /Km (factor Xa): 192 M/s | Km (factor Xa): 2.19 mM | (k1,corr) = k1,corr divided by μM AT-III (euglobulin thrombin; [S] 200 μM in plasma): 1.223 min⁻¹ µM⁻¹ | k1,corr : k1 after correcting for k2,M and 0.170 (euglobulin thrombin; [S] 200 μM in plasma): 1.769 min⁻¹ | k1 : AT-III dependent decay of thrombin (euglobulin thrombin; [S] 200 μM in plasma): 1.946 min⁻¹ | k2 : α2 M dependent decay of thrombin (euglobulin thrombin; [S] 200 μM in plasma): 0.213 min⁻¹ | koverall (euglobulin thrombin; [S] 200 μM in plasma): 2.159 min⁻¹ | t1/2 (euglobulin thrombin; [S] 200 μM in plasma): 19.26 s | (k1,corr) = k1,corr divided by μM AT-III (euglobulin thrombin; [S] 500 μM in plasma): 1.149 min⁻¹ µM⁻¹ | k1,corr : k1 after correcting for k2,M and 0.170 (euglobulin thrombin; [S] 500 μM in plasma): 1.662 min⁻¹ | k1 : AT-III dependent decay of thrombin (euglobulin thrombin; [S] 500 μM in plasma): 1.733 min⁻¹ | k2 : α2 M dependent decay of thrombin (euglobulin thrombin; [S] 500 μM in plasma): 0.291 min⁻¹ | koverall (euglobulin thrombin; [S] 500 μM in plasma): 2.024 min⁻¹ | t1/2 (euglobulin thrombin; [S] 500 μM in plasma): 21.04 s | (k1,corr) = k1,corr divided by μM AT-III (euglobulin thrombin; [S] 1000 μM in plasma): 0.987 min⁻¹ µM⁻¹ | k1,corr : k1 after correcting for k2,M and 0.170 (euglobulin thrombin; [S] 1000 μM in plasma): 1.427 min⁻¹ | k1 : AT-III dependent decay of thrombin (euglobulin thrombin; [S] 1000 μM in plasma): 1.594 min⁻¹ | k2 : α2 M dependent decay of thrombin (euglobulin thrombin; [S] 1000 μM in plasma): 0.172 min⁻¹ | koverall (euglobulin thrombin; [S] 1000 μM in plasma): 1.766 min⁻¹ | t1/2 (euglobulin thrombin; [S] 1000 μM in plasma): 23.56 s | Km (thrombin): 1010 µM | Thrombin kcat (thrombin): 0.55 s⁻¹ | Thrombin kcat /Km (thrombin): 542 M/s
